From the supplement of paper PMC8612539
≈ marks a conversion by molar mass, not a printed value.

System: Escherichia coli
Assay: minimum inhibitory concentration (MIC)
Procedure: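 Broth microdilution MIC (Sensititre BOPO7F bovine plate, CLSI methods) of 19 antimicrobials against field isolates of P. multocida, M. haemolytica, H. somni (deep nasopharyngeal swabs) and E. coli, Enterococcus spp. (rectal swabs) from weaned dairy heifers. Incubation 16-24 h at 35 C. MIC is the lowest concentration preventing visible growth. Values with <= or > lie at the tested range limits. Trimethoprim-sulfamethoxazole is given as the trimethoprim component of a 1:19 mixture.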

CCN1CCN(c2cc3c(cc2F)c(=O)c(C(=O)O)cn3C2CC2)CC1 [Enrofloxacin]
Conditions | minimum inhibitory concentration [µg/mL]
isolate (source animal id): 8 | ≤ 0.12
isolate (source animal id): 9 | > 2
isolate (source animal id): 10 | ≤ 0.12
isolate (source animal id): 11 | ≤ 0.12
isolate (source animal id): 12 | > 2
isolate (source animal id): 13 | ≤ 0.12
isolate (source animal id): 14 | 0.5 (≈ 1.39 µM)
isolate (source animal id): 15 | ≤ 0.12
isolate (source animal id): 16 | ≤ 0.12
isolate (source animal id): 98 | ≤ 0.12
isolate (source animal id): 99 | ≤ 0.12
isolate (source animal id): 100 | ≤ 0.12
isolate (source animal id): 101 | ≤ 0.12
isolate (source animal id): 102 | ≤ 0.12
isolate (source animal id): 103 | ≤ 0.12
isolate (source animal id): 104 | ≤ 0.12
isolate (source animal id): 105 | ≤ 0.12
isolate (source animal id): 106 | > 2
isolate (source animal id): 107 | ≤ 0.12
isolate (source animal id): 108 | ≤ 0.12
isolate (source animal id): 109 | ≤ 0.12
isolate (source animal id): 110 | ≤ 0.12
isolate (source animal id): 111 | > 2
isolate (source animal id): 112 | ≤ 0.12
isolate (source animal id): 113 | 1 (≈ 2.78 µM)
isolate (source animal id): 114 | ≤ 0.12
isolate (source animal id): 115 | 1 (≈ 2.78 µM)
isolate (source animal id): 116 | 1 (≈ 2.78 µM)
isolate (source animal id): 117 | ≤ 0.12
isolate (source animal id): 118 | 0.5 (≈ 1.39 µM)
isolate (source animal id): 119 | > 2
isolate (source animal id): 120 | 1 (≈ 2.78 µM)
isolate (source animal id): 121 | ≤ 0.12
isolate (source animal id): 122 | ≤ 0.12
isolate (source animal id): 123 | ≤ 0.12
isolate (source animal id): 124 | > 2
isolate (source animal id): 125 | ≤ 0.12
isolate (source animal id): 126 | > 2
isolate (source animal id): 127 | ≤ 0.12
isolate (source animal id): 128 | ≤ 0.12
isolate (source animal id): 129 | 1 (≈ 2.78 µM)
isolate (source animal id): 130 | ≤ 0.12
isolate (source animal id): 131 | 2 (≈ 5.56 µM)
isolate (source animal id): 132 | 0.5 (≈ 1.39 µM)
isolate (source animal id): 133 | ≤ 0.12
isolate (source animal id): 134 | ≤ 0.12
isolate (source animal id): 135 | ≤ 0.12
isolate (source animal id): 136 | ≤ 0.12
isolate (source animal id): 137 | 0.5 (≈ 1.39 µM)
isolate (source animal id): 138 | > 2
isolate (source animal id): 139 | 0.25 (≈ 0.696 µM)
isolate (source animal id): 140 | ≤ 0.12
isolate (source animal id): 141 | ≤ 0.12
isolate (source animal id): 142 | ≤ 0.12
isolate (source animal id): 143 | 1 (≈ 2.78 µM)
isolate (source animal id): 144 | > 2
isolate (source animal id): 145 | ≤ 0.12
isolate (source animal id): 146 | 0.5 (≈ 1.39 µM)
isolate (source animal id): 147 | > 2
isolate (source animal id): 148 | 0.25 (≈ 0.696 µM)
isolate (source animal id): 149 | ≤ 0.12
isolate (source animal id): 150 | ≤ 0.12
isolate (source animal id): 151 | ≤ 0.12
isolate (source animal id): 152 | ≤ 0.12
isolate (source animal id): 153 | ≤ 0.12
isolate (source animal id): 154 | 0.5 (≈ 1.39 µM)
isolate (source animal id): 155 | ≤ 0.12
isolate (source animal id): 156 | 1 (≈ 2.78 µM)
isolate (source animal id): 157 | ≤ 0.12
isolate (source animal id): 158 | ≤ 0.12
isolate (source animal id): 159 | ≤ 0.12
isolate (source animal id): 160 | ≤ 0.12
isolate (source animal id): 161 | ≤ 0.12
isolate (source animal id): 162 | > 2
isolate (source animal id): 163 | ≤ 0.12
isolate (source animal id): 164 | ≤ 0.12
isolate (source animal id): 165 | ≤ 0.12
isolate (source animal id): 166 | ≤ 0.12
isolate (source animal id): 167 | ≤ 0.12
isolate (source animal id): 168 | ≤ 0.12
isolate (source animal id): 169 | ≤ 0.12
isolate (source animal id): 170 | ≤ 0.12
isolate (source animal id): 171 | ≤ 0.12
isolate (source animal id): 172 | ≤ 0.12
isolate (source animal id): 173 | ≤ 0.12
isolate (source animal id): 174 | ≤ 0.12
isolate (source animal id): 175 | ≤ 0.12
isolate (source animal id): 176 | ≤ 0.12
isolate (source animal id): 177 | ≤ 0.12
isolate (source animal id): 178 | ≤ 0.12
isolate (source animal id): 179 | ≤ 0.12
isolate (source animal id): 180 | ≤ 0.12
isolate (source animal id): 181 | ≤ 0.12
isolate (source animal id): 182 | ≤ 0.12
isolate (source animal id): 183 | ≤ 0.12
isolate (source animal id): 184 | ≤ 0.12
isolate (source animal id): 185 | ≤ 0.12
isolate (source animal id): 186 | ≤ 0.12
isolate (source animal id): 187 | ≤ 0.12
isolate (source animal id): 188 | 2 (≈ 5.56 µM)
